# Reference: ChEMBL document CHEMBL4610114, “Fragment-Based Discovery of Pyrazolopyridones as JAK1 Inhibitors with Excellent Subtype Selectivity” (J Med Chem, 2020)
# Assays:
# [1] = biological target: T1, Tyrosine-protein kinase JAK1 (Homo sapiens, UniProt P23458)
# [2] = biological target: T2, Tyrosine-protein kinase JAK3 (Homo sapiens, UniProt P52333)
# T2 sequence (P52333 whole entry): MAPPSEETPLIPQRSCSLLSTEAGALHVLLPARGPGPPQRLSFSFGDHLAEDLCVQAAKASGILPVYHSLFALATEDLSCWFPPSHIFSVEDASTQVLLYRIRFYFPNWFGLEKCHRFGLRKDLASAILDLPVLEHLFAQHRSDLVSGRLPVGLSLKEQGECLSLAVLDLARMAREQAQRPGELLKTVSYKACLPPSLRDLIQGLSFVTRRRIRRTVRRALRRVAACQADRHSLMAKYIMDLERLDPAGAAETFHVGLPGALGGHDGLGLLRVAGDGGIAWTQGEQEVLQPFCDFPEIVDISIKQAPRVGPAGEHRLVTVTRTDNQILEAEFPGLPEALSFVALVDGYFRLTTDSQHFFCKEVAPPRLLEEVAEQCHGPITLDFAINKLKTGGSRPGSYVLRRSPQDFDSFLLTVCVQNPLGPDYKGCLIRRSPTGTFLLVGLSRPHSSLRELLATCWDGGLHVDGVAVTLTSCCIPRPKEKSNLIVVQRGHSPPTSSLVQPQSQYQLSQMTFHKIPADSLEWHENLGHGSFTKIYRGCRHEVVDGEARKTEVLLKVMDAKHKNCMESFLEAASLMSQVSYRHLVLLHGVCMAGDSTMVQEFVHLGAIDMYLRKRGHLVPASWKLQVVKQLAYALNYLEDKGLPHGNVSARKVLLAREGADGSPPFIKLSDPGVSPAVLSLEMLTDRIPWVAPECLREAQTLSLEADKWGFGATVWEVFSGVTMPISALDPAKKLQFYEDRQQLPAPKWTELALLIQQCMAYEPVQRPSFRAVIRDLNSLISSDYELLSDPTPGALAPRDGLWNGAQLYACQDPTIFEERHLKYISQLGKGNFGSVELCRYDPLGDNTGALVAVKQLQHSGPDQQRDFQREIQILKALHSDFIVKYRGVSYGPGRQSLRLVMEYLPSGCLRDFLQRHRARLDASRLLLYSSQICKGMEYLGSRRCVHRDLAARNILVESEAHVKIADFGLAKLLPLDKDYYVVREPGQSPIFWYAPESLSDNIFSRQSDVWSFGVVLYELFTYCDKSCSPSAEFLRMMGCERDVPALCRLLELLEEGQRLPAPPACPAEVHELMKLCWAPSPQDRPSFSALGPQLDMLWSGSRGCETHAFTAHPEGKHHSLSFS
# [3] = biological target: T1, Tyrosine-protein kinase JAK1; remark: listed apart in the source
# Description: Inhibition of JAK1 in human STAT6-bla-RA1 cells assessed as reduction in IL4-induced STAT6-signalling pre-incubated for 1 hrs before human recombinant IL4 addition and further incubated for 4 hrs fluorescence based assay
# physchem [4] = conditions: PBS buffer, pH 7.4
# Description: Aqueous solubility in PBS buffer at pH 7.4 by HPLC analysis
# physchem [5] = conditions: octanol/water
# Description: Lipophilicity, logD of the compound by shake flask assay
# [6] = biological target: Non-receptor tyrosine-protein kinase TYK2 (Homo sapiens, UniProt P29597)
# Chain of Non-receptor tyrosine-protein kinase TYK2 (P29597 whole entry): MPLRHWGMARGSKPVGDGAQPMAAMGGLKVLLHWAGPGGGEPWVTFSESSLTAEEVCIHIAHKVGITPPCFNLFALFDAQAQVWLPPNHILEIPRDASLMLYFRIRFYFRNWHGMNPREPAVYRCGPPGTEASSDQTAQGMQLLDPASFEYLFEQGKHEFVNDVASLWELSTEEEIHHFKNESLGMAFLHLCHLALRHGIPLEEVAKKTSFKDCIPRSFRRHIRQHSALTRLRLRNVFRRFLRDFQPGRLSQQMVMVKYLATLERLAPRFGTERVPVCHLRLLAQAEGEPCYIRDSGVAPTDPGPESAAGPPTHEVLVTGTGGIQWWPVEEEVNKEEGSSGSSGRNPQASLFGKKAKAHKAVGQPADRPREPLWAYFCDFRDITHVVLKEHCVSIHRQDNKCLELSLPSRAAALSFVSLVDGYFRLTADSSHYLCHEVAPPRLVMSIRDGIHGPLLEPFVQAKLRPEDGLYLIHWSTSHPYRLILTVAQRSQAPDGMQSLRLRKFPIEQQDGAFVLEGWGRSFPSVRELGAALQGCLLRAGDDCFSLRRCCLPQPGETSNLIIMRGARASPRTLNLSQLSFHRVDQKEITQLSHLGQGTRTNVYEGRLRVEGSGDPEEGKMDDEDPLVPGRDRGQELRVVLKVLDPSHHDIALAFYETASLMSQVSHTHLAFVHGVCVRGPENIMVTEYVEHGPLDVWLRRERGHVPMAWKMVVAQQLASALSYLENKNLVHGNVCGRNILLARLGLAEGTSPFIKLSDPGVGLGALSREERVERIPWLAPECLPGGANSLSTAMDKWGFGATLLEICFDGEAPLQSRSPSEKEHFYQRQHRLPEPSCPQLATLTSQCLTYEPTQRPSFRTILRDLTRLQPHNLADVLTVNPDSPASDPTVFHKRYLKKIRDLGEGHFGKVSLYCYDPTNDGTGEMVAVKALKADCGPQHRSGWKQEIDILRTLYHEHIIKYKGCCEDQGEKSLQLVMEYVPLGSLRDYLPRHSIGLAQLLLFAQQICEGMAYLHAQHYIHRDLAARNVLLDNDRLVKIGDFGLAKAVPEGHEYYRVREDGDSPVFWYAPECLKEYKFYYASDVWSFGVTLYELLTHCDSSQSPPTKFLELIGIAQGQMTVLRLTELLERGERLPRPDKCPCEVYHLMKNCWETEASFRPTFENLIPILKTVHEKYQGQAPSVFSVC
# [7] = biological target: T3, Tyrosine-protein kinase JAK2 (Homo sapiens, UniProt O60674)
# T3 sequence (O60674 whole entry): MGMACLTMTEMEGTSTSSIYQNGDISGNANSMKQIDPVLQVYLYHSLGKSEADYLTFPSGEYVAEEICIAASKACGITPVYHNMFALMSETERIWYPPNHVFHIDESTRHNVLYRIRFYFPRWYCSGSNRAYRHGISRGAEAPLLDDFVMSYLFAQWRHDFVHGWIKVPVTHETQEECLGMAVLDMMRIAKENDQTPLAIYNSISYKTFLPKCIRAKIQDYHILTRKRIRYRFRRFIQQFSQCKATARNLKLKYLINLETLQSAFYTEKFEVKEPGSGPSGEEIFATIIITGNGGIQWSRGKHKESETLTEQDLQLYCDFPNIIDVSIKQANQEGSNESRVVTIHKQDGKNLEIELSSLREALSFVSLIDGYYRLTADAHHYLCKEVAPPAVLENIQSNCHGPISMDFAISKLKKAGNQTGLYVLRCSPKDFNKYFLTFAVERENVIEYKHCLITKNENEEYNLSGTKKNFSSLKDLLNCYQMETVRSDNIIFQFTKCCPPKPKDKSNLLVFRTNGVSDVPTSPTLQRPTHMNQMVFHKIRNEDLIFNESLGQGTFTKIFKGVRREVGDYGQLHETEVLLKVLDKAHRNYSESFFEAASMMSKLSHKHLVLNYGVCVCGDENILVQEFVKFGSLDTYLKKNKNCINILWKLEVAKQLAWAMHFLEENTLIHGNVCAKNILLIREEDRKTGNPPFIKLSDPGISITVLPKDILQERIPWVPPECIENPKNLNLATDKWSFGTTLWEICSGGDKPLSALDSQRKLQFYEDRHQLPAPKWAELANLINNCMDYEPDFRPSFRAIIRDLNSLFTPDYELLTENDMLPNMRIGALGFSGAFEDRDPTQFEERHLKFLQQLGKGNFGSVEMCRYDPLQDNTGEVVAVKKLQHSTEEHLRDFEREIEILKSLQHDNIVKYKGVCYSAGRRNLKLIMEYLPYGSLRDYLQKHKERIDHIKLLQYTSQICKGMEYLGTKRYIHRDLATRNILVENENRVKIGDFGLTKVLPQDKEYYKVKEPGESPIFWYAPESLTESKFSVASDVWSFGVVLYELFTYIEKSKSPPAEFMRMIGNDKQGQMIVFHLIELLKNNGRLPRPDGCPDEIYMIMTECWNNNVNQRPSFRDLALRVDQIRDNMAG
# Description: Inhibition of JAK2 in human STAT5-irf1-bla TF1 cells assessed as reduction in EPO-induced STAT5-signalling pre-incubated for 1 hrs before EPO addition and further incubated for 4 hrs fluorescence based assay
# [8] = biological target: T3, Tyrosine-protein kinase JAK2; remark: listed apart in the source
# in vitro = conditions: human, liver microsomes
# Description: Apparent intrinsic clearance in human liver microsomes
# T1 sequence (P23458 whole entry): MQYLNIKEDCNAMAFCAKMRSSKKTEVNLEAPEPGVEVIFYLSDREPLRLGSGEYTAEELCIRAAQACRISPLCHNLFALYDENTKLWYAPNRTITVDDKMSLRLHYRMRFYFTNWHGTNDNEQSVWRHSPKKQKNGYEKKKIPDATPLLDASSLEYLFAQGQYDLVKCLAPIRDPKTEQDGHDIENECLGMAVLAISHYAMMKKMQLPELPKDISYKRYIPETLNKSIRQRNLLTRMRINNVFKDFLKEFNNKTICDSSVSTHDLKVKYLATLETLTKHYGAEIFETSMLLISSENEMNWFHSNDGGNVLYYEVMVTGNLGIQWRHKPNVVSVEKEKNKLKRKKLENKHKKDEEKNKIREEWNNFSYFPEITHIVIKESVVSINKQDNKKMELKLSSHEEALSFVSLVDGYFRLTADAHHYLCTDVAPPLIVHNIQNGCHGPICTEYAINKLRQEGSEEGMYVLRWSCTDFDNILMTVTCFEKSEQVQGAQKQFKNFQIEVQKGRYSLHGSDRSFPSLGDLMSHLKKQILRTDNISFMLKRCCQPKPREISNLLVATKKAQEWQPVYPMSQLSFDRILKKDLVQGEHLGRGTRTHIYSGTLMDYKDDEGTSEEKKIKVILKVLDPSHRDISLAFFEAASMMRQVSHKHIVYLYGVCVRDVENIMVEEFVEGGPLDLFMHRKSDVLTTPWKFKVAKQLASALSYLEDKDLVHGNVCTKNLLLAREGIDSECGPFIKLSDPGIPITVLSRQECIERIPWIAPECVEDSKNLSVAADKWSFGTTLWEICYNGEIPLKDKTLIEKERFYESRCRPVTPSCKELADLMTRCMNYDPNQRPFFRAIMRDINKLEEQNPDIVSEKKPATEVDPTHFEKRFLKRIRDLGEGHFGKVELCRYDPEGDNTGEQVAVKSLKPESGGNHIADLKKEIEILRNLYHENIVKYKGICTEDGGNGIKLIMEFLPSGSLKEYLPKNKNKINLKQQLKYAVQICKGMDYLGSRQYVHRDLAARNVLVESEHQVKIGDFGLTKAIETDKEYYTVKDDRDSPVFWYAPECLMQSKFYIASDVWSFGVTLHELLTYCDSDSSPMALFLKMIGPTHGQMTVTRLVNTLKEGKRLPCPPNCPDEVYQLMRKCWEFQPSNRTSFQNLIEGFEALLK
IC50 [1],IC50 [2],IC50 [3],solubility (physchem [4]),logD (physchem [5]),IC50 [6],IC50 [7],IC50 [8],CLint scaled (in vitro),SMILES
490 nM,1700 nM,20000 nM,> 85 µM,0.8,4200 nM,,,,Cc1[nH]nc2[nH]c(=O)cc([C@H]3CC[C@H](O)CC3)c12
40 nM,110 nM,1300 nM,8 µM,3,700 nM,8900 nM,340 nM,,Cc1[nH]nc2[nH]c(=O)cc([C@H]3CCCC[C@H]3C)c12 (racemic)
400 nM,6600 nM,,,,,,2500 nM,,Cc1[nH]nc2[nH]c(=O)cc([C@H]3CC[C@H](NS(=O)(=O)C4CC4)CC3)c12
220 nM,7000 nM,> 14000 nM,22 µM,1.2,2800 nM,> 14000 nM,2100 nM,,Cc1[nH]nc2[nH]c(=O)cc([C@H]3CC[C@H](NC(=O)C4CC4)CC3)c12
15000 nM,12000 nM,> 50000 nM,,,24000 nM,,35000 nM,,O=c1cc(C2CCCCC2)c2c[nH]nc2[nH]1
46 nM,240 nM,850 nM,64 µM,2.8,430 nM,22000 nM,430 nM,,Cc1[nH]nc2[nH]c(=O)cc([C@H]3C[C@H]4CC[C@@H]3C4)c12 (racemic)
820 nM,11000 nM,> 40000 nM,,,16000 nM,> 40000 nM,18000 nM,,Cc1[nH]nc2[nH]c(=O)cc([C@H]3CC[C@H](N)CC3)c12
40 nM,1700 nM,3200 nM,,,,> 10000 nM,570 nM,,Cc1[nH]nc2[nH]c(=O)cc([C@H]3CC[C@H](NS(=O)(=O)CC4CCC4)CC3)c12
120 nM,480 nM,3400 nM,16 µM,2.2,1100 nM,> 40000 nM,570 nM,,Cc1[nH]nc2[nH]c(=O)cc(CC3CCC3)c12
44 nM,180 nM,1000 nM,33 µM,2.7,150 nM,> 40000 nM,380 nM,,Cc1[nH]nc2[nH]c(=O)cc([C@@H]3C[C@H]4CC[C@@H]3C4)c12 (racemic)
460 nM,1600 nM,2500 nM,,3,,> 40000 nM,2700 nM,,CCc1[nH]nc2[nH]c(=O)cc(C3CCCCC3)c12
3 nM,88 nM,250 nM,2.4 µM,3,,,,87 mL/min/kg,Cc1[nH]nc2[nH]c(=O)cc([C@H]3CC[C@H](CC(=O)N4CC(Cc5ccccc5)C4)CC3)c12
,,,,2,,,,,CCCS(=O)(=O)N[C@H]1C[C@@H](N(C)c2ncnc3[nH]ccc23)C1 [ABROCITINIB]
,420 nM,,,,180 nM,15000 nM,93 nM,,Cc1[nH]nc2[nH]c(=O)cc([C@@H]3C[C@@H]4C[C@H]3C[C@H]4CC#N)c12
40 nM,270 nM,1200 nM,59 µM,1.5,130 nM,> 40000 nM,360 nM,,Cc1[nH]nc2[nH]c(=O)cc([C@H]3CC[C@H](CC#N)CC3)c12
490 nM,990 nM,8500 nM,11 µM,2.6,3400 nM,> 40000 nM,3900 nM,,Cc1[nH]nc2[nH]c(=O)c(CCO)c(C3CCCCC3)c12
2000 nM,1100 nM,> 40000 nM,,,14000 nM,> 40000 nM,9400 nM,,Cc1[nH]nc2[nH]c(=O)cc([C@H]3CC[C@H](C(=O)NC4CC4)CC3)c12

# Further lines, the molecule ahead of its results:
SMILES,IC50 [1],IC50 [2],IC50 [3],solubility (physchem [4]),logD (physchem [5]),IC50 [6],IC50 [7],IC50 [8],CLint scaled (in vitro)
Cc1[nH]nc2[nH]c(=O)c(CO)c(C3CCCCC3)c12,140 nM,1400 nM,4800 nM,100 µM,2.1,650 nM,> 40000 nM,2800 nM,
Cc1cc(O)nc2c1c(C)nn2C,> 900000 nM,,,,,,,,
O=c1cc(C(F)F)c2c[nH]nc2[nH]1,> 100000 nM,,,,,,,,
Cc1[nH]nc2[nH]c(=O)cc([C@H]3CC[C@H](NC(=O)[C@H]4CC4(F)F)CC3)c12,78 nM,2700 nM,> 40000 nM,29 µM,1.3,2700 nM,> 40000 nM,1700 nM,
Cc1[nH]nc2[nH]c(=O)cc([C@H]3CC[C@H](CC(=O)N4CCC(C)(C)CC4)CC3)c12,3.4 nM,57 nM,110 nM,,2.9,,3400 nM,32 nM,70 mL/min/kg
Cc1[nH]nc2[nH]c(=O)cc([C@H]3CC[C@H](CC(=O)N4CCC(c5ccccc5)C4)CC3)c12 (mixture of isomers),2.1 nM,63 nM,110 nM,,3,,2400 nM,19 nM,75 mL/min/kg
Cc1[nH]nc2[nH]c(=O)cc(C3CC4CCC3CC4)c12 (racemic),54 nM,65 nM,890 nM,8 µM,3.3,220 nM,9100 nM,330 nM,
Cc1[nH]nc2[nH]c(=O)cc([C@H]3CC[C@H](NC(=O)[C@@H]4CC4(F)F)CC3)c12,6.4 nM,480 nM,1700 nM,43 µM,1.3,220 nM,> 7000 nM,120 nM,
Cc1[nH]nc2[nH]c(=O)cc([C@H]3CC[C@H](OC(=O)[C@@H]4CC4(F)F)CC3)c12,14 nM,91 nM,420 nM,3 µM,,,> 25000 nM,120 nM,
Cc1[nH]nc2[nH]c(=O)cc(C3CCCCC3)c12,130 nM,550 nM,3700 nM,4 µM,2.8,670 nM,> 40000 nM,1300 nM,
Cc1[nH]nc2[nH]c(=O)cc(C3CCCC3)c12,72 nM,670 nM,4300 nM,39 µM,2.2,830 nM,> 40000 nM,13000 nM,
Cc1[nH]nc2[nH]c(=O)c(C#N)c(C3CCCCC3)c12,2100 nM,5400 nM,20000 nM,,,11000 nM,> 40000 nM,17000 nM,
Cc1[nH]nc2[nH]c(=O)cc(-c3ccccc3)c12,2200 nM,2600 nM,> 50000 nM,> 90 µM,2.2,3900 nM,,4200 nM,
Cc1[nH]nc2[nH]c(=O)cc([C@H]3CC[C@H](C#N)CC3)c12,730 nM,11000 nM,,,,,,,
Cc1[nH]nc2[nH]c(=O)cc([C@H]3CC[C@H](NC(=O)C4CCCC4)CC3)c12,110 nM,4800 nM,9100 nM,,,6800 nM,> 30000 nM,1600 nM,
Cc1cc(=O)[nH]c2n[nH]c(C)c12,30000 nM,,,,,,,,
Cc1cc(=O)[nH]c2nn(C)c(C)c12,> 500000 nM,,,,,,,,
O=c1cc(C2CCCCC2)c2c(C3CC3)[nH]nc2[nH]1,500 nM,980 nM,1800 nM,,3.1,1600 nM,> 40000 nM,1300 nM,
Cc1[nH]nc2[nH]c(=O)cc([C@H]3CC[C@H](CCC#N)CC3)c12,32 nM,280 nM,1200 nM,18 µM,1.8,,13000 nM,160 nM,
